Experimental data from patent publication US10689367B2, “Triazole pyridyl compounds as agonists of the APJ receptor” (AMGEN INC., priority 2016, dated 2020).

What follows are compounds tested on heart failure rats (assay: Cardiac function in heart failure rats in vivo with ACE inhibitor captopril, with or without APJ agonist). Conditions: captopril alone, acute settings.
Design: species or system rat
From the text: The interaction between […] (ACE2) and Apelin biology is complicated. To investigate the interaction between the Apelin-APJ and ACE signalling pathways, we examined the improvement in cardiac function with APJ small molecule agonists in the presence of ACE inhibitor captopril in heart failure rats in vivo. […] However, in the presence of an APJ agonist, there was a shift in potency to the left with marked improvement in contractility and ejection fraction without changes in heart rate. These findings provide a new reference for the understanding of the regulation of ACE2 for the renin angiotensin aldosterone system (RAAS), independent of AT1R signaling and offer new potential drug targets for the treatment of diseases such as hypertension and heart failure. This work clearly establishes that combination of an agonist of the APJ receptor with an ARB such as losartan and/or with an ACE inhibitor such as captopril which may play an important role in providing greater efficacy in treating heart failure patients, for example in improving contractility and ejection fraction without changing the heart rate.
In the case of C[C@H](CS)C(=O)N1CCC[C@H]1C(=O)O [Captopril, captopril], the “improvement in contractility or ejection fraction” value is reported as “does not show a marked improvement in contractility or ejection fraction”.

The compounds below were run against human APJ receptor (Homo sapiens (Human), UniProt P35414) (assay: [35S]GTPγS binding assay on membranes from CHO cells stably expressing human APJ receptor). Conditions: membranes of CHO cells stably expressing human APJ receptor, read-out: Activity hAPJ SPA EC50 IP.
Chain of human APJ receptor (P35414 whole entry): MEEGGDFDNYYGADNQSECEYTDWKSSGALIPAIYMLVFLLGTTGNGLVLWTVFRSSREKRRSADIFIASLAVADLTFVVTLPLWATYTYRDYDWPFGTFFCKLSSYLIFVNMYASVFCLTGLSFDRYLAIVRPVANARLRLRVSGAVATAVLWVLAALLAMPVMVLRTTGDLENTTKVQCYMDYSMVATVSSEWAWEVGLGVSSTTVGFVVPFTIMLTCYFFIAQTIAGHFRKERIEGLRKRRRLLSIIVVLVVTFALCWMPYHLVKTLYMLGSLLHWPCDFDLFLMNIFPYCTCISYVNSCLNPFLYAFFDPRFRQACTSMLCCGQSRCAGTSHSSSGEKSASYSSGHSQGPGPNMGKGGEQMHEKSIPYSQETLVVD
Type: biochemical
How it was run: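 Agonist EC50 values come from non-linear regression of mean data from several independent runs. Membranes of CHO cells stably expressing human APJ were incubated 90 min at room temperature with [35S]GTPγS in buffer with optimized GDP, MgCl2 and NaCl, then read on a microplate imager.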
COCC(COC)n1c(NS(=O)(=O)[C@@H](C)[C@H](C)c2cnc(C)cn2)nnc1-c1cccc(OC)n1 [Example 102.0] showed an EC50 of 20 nM.
In the case of CC[C@@H](c1c(C)noc1C)n1c(NS(=O)(=O)[C@@H](C)[C@H](OC)c2ncc(Cl)cn2)nnc1-c1cccc(OC)n1 (single isomer, unassigned) [Example 219.0, (1R,2S)-1-(5-chloro-2-pyrimidinyl)-N-(4-((1R)-1-(3,5-dimethyl-1,2-oxazol-4-yl)propyl)-5-(6-methoxy-2-pyridinyl)-4H-1,2,4-triazol-3-yl)-1-methoxy-2-propanesulfonamide or (1R,2S)-1-(5-chloro-2-pyrimidinyl)-N-(4-((1S)-1-(3,5-dimethyl-1,2-oxazol-4-yl)propyl)-5-(6-methoxy-2-pyridinyl)-4H-1,2,4-triazol-3-yl)-1-methoxy-2-propanesulfonamide], the EC50 is reported as 1.8 nM.
Work on COc1cnc([C@@H](OC)[C@H](C)S(=O)(=O)Nc2nnc(-c3cccc(OC)n3)n2[C@H]2CC23CC3)cn1 (single isomer, unassigned) [Example 159.0, (1R,2S)-1-methoxy-1-(5-methoxypyrazin-2-yl)-N-(5-(6-methoxypyridin-2-yl)-4-((S)-spiro[2.2]pentan-1-yl)-4H-1,2,4-triazol-3-yl)propane-2-sulfonamide or (1R,2S)-1-methoxy-1-(5-methoxypyrazin-2-yl)-N-(5-(6-methoxypyridin-2-yl)-4-((R)-spiro[2.2]pentan-1-yl)-4H-1,2,4-triazol-3-yl)propane-2-sulfonamide] yielded an EC50 of 550 nM.
COc1cccc(-c2nnc(NS(=O)(=O)[C@@H](C)[C@H](OC)c3ncc(Cl)cn3)n2C[C@H]2CCCO2)n1 (single isomer, unassigned) [Example 279.0, (1R,2S)-1-(5-chloropyrimidin-2-yl)-1-methoxy-N-(5-(6-methoxypyridin-2-yl)-4-(((R)-tetrahydrofuran-2-yl)methyl)-4H-1,2,4-triazol-3-yl)propane-2-sulfonamide or (1R,2S)-1-(5-chloropyrimidin-2-yl)-1-methoxy-N-(5-(6-methoxypyridin-2-yl)-4-(((S)-tetrahydrofuran-2-yl)methyl)-4H-1,2,4-triazol-3-yl)propane-2-sulfonamide] showed an EC50 of 75 nM.
COc1cccc(-c2nnc(NS(=O)(=O)[C@@H](C)[C@H](OC)c3ncc(Cl)cn3)n2C2CC3(COC3)C2)n1 [Example 7.0, (1R,2S)-1-(5-chloro-2-pyrimidinyl)-1-methoxy-N-(5-(6-methoxy-2-pyridinyl)-4-(2-oxaspiro[3.3]hept-6-yl)-4H-1,2,4-triazol-3-yl)-2-propanesulfonamide] showed an EC50 of 240 nM.
COc1cccc(-c2nnc(NS(=O)(=O)[C@@H](C)[C@H](OC)c3ncc(Cl)cn3)n2CC2CCOC2)n1 (single isomer, unassigned) [Example 286.0, (1R,2S)-1-(5-chloropyrimidin-2-yl)-1-methoxy-N-(5-(6-methoxypyridin-2-yl)-4-(((R)-tetrahydrofuran-3-yl)methyl)-4H-1,2,4-triazol-3-yl)propane-2-sulfonamide or (1R,2S)-1-(5-chloropyrimidin-2-yl)-1-methoxy-N-(5-(6-methoxypyridin-2-yl)-4-(((S)-tetrahydrofuran-3-yl)methyl)-4H-1,2,4-triazol-3-yl)propane-2-sulfonamide] gave an EC50 of 55 nM.
CC[C@H]([C@@H]1CCCCO1)n1c(NS(=O)(=O)[C@@H](C)[C@H](OC)c2ncc(Cl)cn2)nnc1-c1cccc(OC)n1 (single isomer, unassigned) [Example 328.0] showed an EC50 of 0.064 nM.
For COC[C@@H](C)n1c(NS(=O)(=O)[C@@H](C)[C@H](OC)c2ncc(Cl)cn2)nnc1-c1cncc(C)c1 [Example 126.0], the EC50 was 38 nM.
In the case of COc1cccc(-c2nnc(NS(=O)(=O)[C@@H](C)[C@@H](OC(C)C)c3ncc(C)cn3)n2[C@@H](C)[C@H]2CCCO2)n1 (single isomer, unassigned) [Example 276.0], the EC50 is reported as 1.3 nM.
